Experimental data as given in paper PMC5663094, “A seven-gene cluster in Ruminiclostridium cellulolyticum is essential for signalization, uptake and catabolism of the degradation products of cellulose hydrolysis” (Biotechnology for Biofuels, 2017).

Key:
[1] = biological target: T1, rCuaA (Ruminiclostridium cellulolyticum, UniProt B8I424); experiment: isothermal titration calorimetry; type: binding; details: 20 °C, 150 mM NaCl, 25 mM HEPES, pH 7.0
T1 construct: gene Ccel_2112; mature protein (lipoprotein signal peptide removed, putative cleavage at amino acid 22), N-terminal His6, pET22b(+), E. coli BL21(DE3)
Description: isothermal titration calorimetry on rCuaA

[2] = biological target: T2, rCuaD (Ruminiclostridium cellulolyticum, UniProt B8I427); experiment: isothermal titration calorimetry; type: binding; details: 20 °C, 150 mM NaCl, 25 mM HEPES, pH 7.0
T2 construct: gene Ccel_2115; mature protein (lipoprotein signal peptide removed, putative cleavage at amino acid 20), N-terminal His6, pET22b(+), E. coli BL21(DE3)
Description: isothermal titration calorimetry on rCuaD

T1 sequence (B8I424 entry or part of it): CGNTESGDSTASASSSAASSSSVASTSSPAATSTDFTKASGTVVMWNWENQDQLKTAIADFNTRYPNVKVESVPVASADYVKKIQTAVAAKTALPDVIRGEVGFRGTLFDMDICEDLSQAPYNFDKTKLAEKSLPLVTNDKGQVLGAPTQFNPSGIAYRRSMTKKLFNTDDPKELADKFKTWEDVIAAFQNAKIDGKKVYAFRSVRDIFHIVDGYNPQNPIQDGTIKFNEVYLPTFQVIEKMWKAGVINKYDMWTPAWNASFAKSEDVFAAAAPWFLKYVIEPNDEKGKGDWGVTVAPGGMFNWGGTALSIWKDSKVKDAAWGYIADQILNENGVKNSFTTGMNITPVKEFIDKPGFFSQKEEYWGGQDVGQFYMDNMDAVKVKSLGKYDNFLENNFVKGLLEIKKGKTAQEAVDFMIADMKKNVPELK
T2 sequence (B8I427 entry or part of it): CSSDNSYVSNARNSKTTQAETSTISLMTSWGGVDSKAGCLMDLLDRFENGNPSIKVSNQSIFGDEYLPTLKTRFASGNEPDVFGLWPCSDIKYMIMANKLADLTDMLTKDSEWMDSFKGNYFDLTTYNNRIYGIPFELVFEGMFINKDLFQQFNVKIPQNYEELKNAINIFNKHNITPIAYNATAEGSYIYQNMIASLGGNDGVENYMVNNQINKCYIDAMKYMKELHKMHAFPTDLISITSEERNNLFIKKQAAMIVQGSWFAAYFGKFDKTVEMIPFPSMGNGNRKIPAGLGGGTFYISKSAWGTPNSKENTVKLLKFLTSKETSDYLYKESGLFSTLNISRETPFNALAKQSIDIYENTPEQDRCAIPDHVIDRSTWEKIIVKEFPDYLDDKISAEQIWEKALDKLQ

Kd [1] [nM] | Kd [2] [nM] | SMILES
1860 ± 130 |  | OC[C@H]1O[C@@H](O[C@H]2[C@H](O)[C@@H](O)[C@H](O[C@H]3[C@H](O)[C@@H](O)[C@H](O[C@H]4[C@H](O)[C@@H](O)[C@H](O[C@H]5[C@H](O)[C@@H](O)C(O)O[C@@H]5CO)O[C@@H]4CO)O[C@@H]3CO)O[C@@H]2CO)[C@H](O)[C@@H](O)[C@@H]1O (some centres unmarked) [G5, cellopentaose]
644 ± 58 |  | OC[C@H]1O[C@@H](O[C@H]2[C@H](O)[C@@H](O)[C@H](O[C@H]3[C@H](O)[C@@H](O)[C@H](O[C@H]4[C@H](O)[C@@H](O)C(O)O[C@@H]4CO)O[C@@H]3CO)O[C@@H]2CO)[C@H](O)[C@@H](O)[C@@H]1O (some centres unmarked) [G4, cellotetraose]
240 ± 20 | 23 ± 3 | OC[C@H]1O[C@@H](O[C@H]2[C@H](O)[C@@H](O)C(O)O[C@@H]2CO)[C@H](O)[C@@H](O)[C@@H]1O (some centres unmarked) [G2, cellobiose]
405 ± 110 |  | OC[C@H]1O[C@@H](O[C@H]2[C@H](O)[C@@H](O)[C@H](O[C@H]3[C@H](O)[C@@H](O)C(O)O[C@@H]3CO)O[C@@H]2CO)[C@H](O)[C@@H](O)[C@@H]1O (some centres unmarked) [G3, cellotriose]
